The source of these data is patent US5703056A, “Non-invasive imaging of gene transfer” (priority 1995, dated 1997).

Where two headings read alike, the source gives them in different places.

The conditions of data set [1]: cited from earlier work; for lipophilicity and blood-brain barrier permeability compared with FIAU: compared with FIAU (FAIU [sic]), Iwashina et al. 1988.
The nature of the next data set: physchem. Format: physicochemical. Conditions: octanol/water. The source says:
It is known that brain capillary permeability for many compounds is related to their octanol/water partition coefficient (P) and molecular weight. [[…]. Med. […] [Dischino, […]., and […]. Nucl. […] […]. Drug transfer across the blood brain barrier. In: Topics in Pharmaceutical Sciences. Ed.: Breimer, D. D., and […]. […] […]., and Rapoport, S. I. In: Handbook of Physiology. The Cardiovascular System. Microcirculation. Bethesda, Md.: Am. Physiol. Soc., sect. 2, Vol. IV, […]. 969-1000, 1984; […]. In: Implications of Blood-Brain Barrier and Its Manipulation. Basic Science Aspects. Ed. by Neuwelt, E., New York: Plenum, Vol. 1, […]. 132-55, 1988] […] [Xu, […]., Knaus, E. E., and Wiebe, L. I. In: Advances in Radiopharmacology. […]., Snowdon, G. M., Boniface, G. R., Univ. of Wollongong Printing Service, Wollongong, Australia, pp. 283-298, 1990] […] […]).

Data set [2] in a line: Calculated permeability surface area product (PS) of the cerebral capillaries. Also noted: unit not given here. Conditions: for PS+: calculated from published log P and MW: log(PS)=5.2+log(P·Dm); for PS*: calculated from measured log P and MW: log(PS)=5.2+log(P·Dm). The text has this:
Passage of the nucleosides across the blood brain barrier (BBB) is an important factor to consider in the design of radiolabelled 2'-fluoro-nucleoside analogues for imaging HSV1-TK expression in the brain. […] It is known that brain capillary permeability for many compounds is related to their octanol/water partition coefficient (P) and molecular weight. [Levin, V. N. J. Med. Chem., 23: 682-4, 1980] Several authors have described a relationship between the brain capillary permeability and log P or log P·Dm, where Dm is a measure of diffusibility. […] [Dischino, D. D., Welch, M. J., Kilbourn, M. N., and Raichle, M. E., J. Nucl. Med., 24: 1030-8, 1983] […] Fenstermacher, J. D. Drug transfer across the blood brain barrier. In: Topics in Pharmaceutical Sciences. Ed.: Breimer, D. D., and Speiser, P. Amsterdam: Elsevier, pp. 143-54, 1983; Fenstermacher, J. D., and Rapoport, S. I. In: Handbook of Physiology. The Cardiovascular System. Microcirculation. Bethesda, Md.: Am. Physiol. Soc., sect. 2, Vol. IV, pt. 2, chapt. 21, p. 969-1000, 1984; Fenstermacher, J. D. In: Implications of Blood-Brain Barrier and Its Manipulation. Basic Science Aspects. Ed. by Neuwelt, E., New York: Plenum, Vol. 1, Chapt. 6, pp. 132-55, 1988]

Turning to `CCc1cn([C@@H]2O[C@H](CO)[C@@H](O)[C@H]2F)c(=O)[nH]c1=O` [FERU, 5-ethyl-2'-fluoro-1-β-D-ribofuranosyl-uracil], in data set [1], the “lipophilicity and blood-brain barrier permeability compared with FIAU” value is “higher lipophilicity and better permeability through the blood-brain barrier”.

Usually logP stands for a log measure of how a compound divides between an organic and an aqueous phase. Regarding `O=C(O)CN(CCN(CC(=O)O)CC(=O)O)CCN(CC(=O)O)CC(=O)O` [DTPA], in “physchem”, the logP was -3.89. Moreover, the “PS+” value in data set [2] is recorded as 0.00009.

`O=c1[nH]c(=O)n([C@@H]2O[C@H](CO)[C@@H](O)[C@@H]2F)cc1F` [FFAU, 2'-fluoro-5-fluoro-1-β-D-arabinofuranosyl-uracil] showed a logP in “physchem” of -1.09. For the same compound, the “PS*” value in data set [2] was 0.08.

`CC(C)(N)C(=O)O` [AIB]: the logP in the data set “physchem” is -2.48. Besides, the “PS+” value in data set [2] is reported as 0.00052.

`O=c1ccn([C@H]2C[C@H](O)[C@@H](CO)O2)c(=O)[nH]1` [UdR, 2-deoxyuridine]: the “Log P+” value in data set [1] (log P values published by Xu, et al.) is -1.48. Further, the logP in the data set “physchem” is -0.131. In data set [2], the “PS*” value was 0.05 and the “PS+” value was 0.03.

Regarding `CCc1cn([C@@H]2O[C@H](CO)[C@@H](O)[C@@H]2F)c(=O)[nH]c1=O` [FEAU, 2'-fluoro-5-ethyl-1-β-D-arabinofuranosyl-uracil], the “lipophilicity and blood-brain barrier permeability compared with FIAU” value in data set [1] is “higher lipophilicity and better permeability through the blood-brain barrier”. The “PS+” value in data set [2] is on record as 0.31.

In the case of `Cc1cn([C@H]2C[C@H](O)[C@@H](CO)O2)c(=O)[nH]c1=O` [TdR, thymidine], in data set [1] (octanol/water), the “Log P+” value was -1.12. The same compound gave a logP in the data set “physchem” of -0.8.

Consider `O=c1[nH]c(=O)n([C@H]2C[C@H](O)[C@@H](CO)O2)cc1/C=C/I` [5-IVdU], for which the “Log P*” value in the data set “physchem” came out at 1.10. The “PS*” value in data set [2] was 10.29.

For the compound `O=c1[nH]c(=O)n([C@H]2C[C@H](O)[C@@H](CO)O2)cc1F` [5-FUdR], the “Log P+” value in data set [1] (octanol/water) is listed as -1.51. The logP in “physchem” is -1.52. Also, in data set [2], the “PS*” value is reported as 0.03 and the “PS+” value is on record as 0.03.

On to `O=c1[nH]c(=O)n([C@@H]2O[C@H](CO)[C@@H](O)[C@H]2F)cc1I` [FIRU, 2'-fluoro-5-iodo-1-β-D-ribofuranosyl-uracil], for which the “PS*” value in data set [2] was 0.45.

In the case of `O=c1[nH]c(=O)n([C@@H]2O[C@H](CO)[C@@H](O)[C@@H]2F)cc1C=CI` [FIVAU, 2'-fluoro-5-iodovinyl-1-β-D-arabinofuranosyl-uracil], the “lipophilicity and blood-brain barrier permeability compared with FIAU” value in data set [1] was “higher lipophilicity and better permeability through the blood-brain barrier”.

Consider `O=c1[nH]c(=O)n([C@@H]2O[C@H](CO)[C@@H](O)[C@H]2F)cc1C=CI` [FIVRU, 2'-fluoro-5-iodovinyl-1-β-D-ribofuranosyl-uracil], for which the “lipophilicity and blood-brain barrier permeability compared with FIAU” value in data set [1] is “higher lipophilicity and better permeability through the blood-brain barrier”. The logP in the data set “physchem” was 1.21. For the same compound, the “PS*” value in data set [2] is on record as 13.03.

Take `O=c1[nH]c(=O)n([C@@H]2O[C@H](CO)[C@@H](O)[C@H]2F)cc1F` [FFRU]: the “PS*” value in data set [2] was 0.02.
